Measurements: US20250145609A1, “3-SUBSTITUTED PYRIDAZINE COMPOUNDS AS SMARCA2 AND/OR SMARCA4 DEGRADERS” (Aurigene Oncology Limited, priority 2022, published 2025)

Tests used:
Format in all cases: cell-based
VCaP cells = assay: Anti proliferative activity in VCaP cell line by CellTiter Glo assay; details: Homo sapiens; for EC50: VCaP, 192 h, 8 days incubation, CellTiter Glo luminescence
Description: Example-P1: Determination of Anti Proliferative Activity of Compounds in Cell Lines VCaP by Cell Titer Glo©(Promega) Assay
VCaP (ATCC CRL-2876) cells were seeded in 96 well plate flat black clear bottom plates (Corning, Cat. No 3904) using complete DMEM Medium. Next day, compounds listed in the present invention were added to cells from 10 mM stocks made in DMSO (Sigma Cat no. D2650). Each concentration of compound was tested in triplicate with DMSO concentration at a final percentage not exceeding 0.3 in the cells. After the incubation of VCaP cells with compound for 8 days assay was terminated using 50 μl of CellTiter Glo© reagent (Promega, Cat. no G7572). CellTiter-Glo® Luminescent reagent determines the number of viable cells based on quantitation of ATP present which is an indicator of cell number and metabolic activity. Luminescence readings were taken in Victor-3 instrument. Percent inhibition of proliferation was calculated using formula, % inhibition=100−(luminescence value of test/luminescence value of DMSO control)*100. DMSO control (0%)=Cells in complete media with DMSO; blank=Media alone containing DMSO. EC50 was calculated using graph pad prism software.
Herein the group “A” refers to EC50 values lower than l0 nM, group “B” refers to EC50 values between l0 nM-100 nM (both inclusive) and group “C” refers to EC50 values greater than 100 nM.

SMARCA4 = biological target: T1, SMARCA4 (Homo sapiens, UniProt P51532); assay: SMARCA4 degradation in VCaP cells by Western blot; details: at 100 nM; for Percent SMARCA4 degradation at 0.1 µM: VCaP, 16 h; for Percent degradation SMARCA4: 16 hours
T1 construct: endogenous in cells; host or cells: VCaP (ATCC CRL-2876)
T1 sequence (P51532 whole entry): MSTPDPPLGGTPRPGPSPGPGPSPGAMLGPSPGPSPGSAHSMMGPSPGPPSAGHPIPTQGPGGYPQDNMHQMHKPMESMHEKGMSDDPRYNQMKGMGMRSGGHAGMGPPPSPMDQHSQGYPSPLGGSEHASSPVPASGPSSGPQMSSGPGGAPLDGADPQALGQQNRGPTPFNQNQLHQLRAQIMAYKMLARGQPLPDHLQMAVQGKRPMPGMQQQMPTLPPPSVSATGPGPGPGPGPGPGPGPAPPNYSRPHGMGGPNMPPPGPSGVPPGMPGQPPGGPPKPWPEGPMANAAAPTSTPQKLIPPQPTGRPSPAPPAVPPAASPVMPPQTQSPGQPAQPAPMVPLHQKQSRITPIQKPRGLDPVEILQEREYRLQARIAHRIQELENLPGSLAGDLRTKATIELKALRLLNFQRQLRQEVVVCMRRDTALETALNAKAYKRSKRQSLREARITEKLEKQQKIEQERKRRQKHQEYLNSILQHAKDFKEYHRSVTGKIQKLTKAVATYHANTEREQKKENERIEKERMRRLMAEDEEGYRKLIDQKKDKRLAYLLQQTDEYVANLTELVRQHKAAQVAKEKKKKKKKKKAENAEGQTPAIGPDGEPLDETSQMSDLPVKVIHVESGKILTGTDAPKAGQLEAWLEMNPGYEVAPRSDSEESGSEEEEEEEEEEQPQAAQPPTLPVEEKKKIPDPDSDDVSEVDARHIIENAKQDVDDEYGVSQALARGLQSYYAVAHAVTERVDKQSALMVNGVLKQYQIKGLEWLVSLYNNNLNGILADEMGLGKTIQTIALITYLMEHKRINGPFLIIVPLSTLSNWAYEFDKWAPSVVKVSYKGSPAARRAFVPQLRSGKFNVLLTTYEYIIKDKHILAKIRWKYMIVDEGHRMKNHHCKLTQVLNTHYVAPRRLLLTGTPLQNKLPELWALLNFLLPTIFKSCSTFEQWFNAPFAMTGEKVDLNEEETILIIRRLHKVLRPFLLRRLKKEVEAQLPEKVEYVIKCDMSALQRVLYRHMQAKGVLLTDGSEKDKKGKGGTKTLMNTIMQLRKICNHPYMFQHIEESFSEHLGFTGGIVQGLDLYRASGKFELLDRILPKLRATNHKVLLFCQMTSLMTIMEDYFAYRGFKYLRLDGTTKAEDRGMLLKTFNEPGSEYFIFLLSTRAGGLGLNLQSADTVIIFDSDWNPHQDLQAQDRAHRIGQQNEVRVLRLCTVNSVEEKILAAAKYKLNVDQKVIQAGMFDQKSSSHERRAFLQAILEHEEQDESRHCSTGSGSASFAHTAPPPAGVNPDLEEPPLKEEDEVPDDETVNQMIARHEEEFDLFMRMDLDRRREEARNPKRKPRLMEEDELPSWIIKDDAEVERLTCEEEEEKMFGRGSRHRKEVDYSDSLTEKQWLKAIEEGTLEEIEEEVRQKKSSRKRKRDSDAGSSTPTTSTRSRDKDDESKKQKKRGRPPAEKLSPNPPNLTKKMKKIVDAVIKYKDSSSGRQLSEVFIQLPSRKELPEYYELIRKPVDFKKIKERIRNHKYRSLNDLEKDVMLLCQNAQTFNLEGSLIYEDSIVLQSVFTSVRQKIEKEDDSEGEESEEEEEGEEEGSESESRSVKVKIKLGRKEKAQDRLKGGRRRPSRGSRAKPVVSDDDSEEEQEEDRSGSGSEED
Description: (§1) Example-P2: Determination of SMARCA2 and SMARCA4 Degradation in VCaP Cells by Western Blot
(§2) VCaP (ATCC CRL-2876) was plated in 6 well plates using complete Dulbecco's Modified Eagle's Medium. On the third day, compounds of present invention were added to cells from 10 mM stocks made in DMSO (Sigma Cat no. D2650). Each compound was tested at 100 nM concentration with DMSO not exceeding final percentage of 0.3 in the cells. Cells were incubated with the compound for 16 hours followed by harvesting with 1×RIPA lysis buffer (Thermo Fischer, catalogue number #89900) containing protease inhibitor cocktail (Sigma catalogue number #P-8340). Equal amount of protein was loaded on SDS PAGE gel for electrophoresis. Western blot was carried out for detection of either SMARCA2 (Cell signalling technologies, catalogue number #11966) or SMARCA4 antibody (Cell signalling technologies, catalogue number #52251). Beta-Tubulin antibody (Cell signalling technologies, catalogue number #86298) was used as loading control. Percentage of SMARCA2 or SMARCA4 degradation was calculated by using formula: […]

SMARCA2 = biological target: T2, SMARCA2 (Homo sapiens, UniProt P51531); assay: SMARCA2 degradation in VCaP cells by Western blot; details: at 100 nM, 16 hours
T2 construct: endogenous in cells; host or cells: VCaP (ATCC CRL-2876)
T2 sequence (P51531 whole entry): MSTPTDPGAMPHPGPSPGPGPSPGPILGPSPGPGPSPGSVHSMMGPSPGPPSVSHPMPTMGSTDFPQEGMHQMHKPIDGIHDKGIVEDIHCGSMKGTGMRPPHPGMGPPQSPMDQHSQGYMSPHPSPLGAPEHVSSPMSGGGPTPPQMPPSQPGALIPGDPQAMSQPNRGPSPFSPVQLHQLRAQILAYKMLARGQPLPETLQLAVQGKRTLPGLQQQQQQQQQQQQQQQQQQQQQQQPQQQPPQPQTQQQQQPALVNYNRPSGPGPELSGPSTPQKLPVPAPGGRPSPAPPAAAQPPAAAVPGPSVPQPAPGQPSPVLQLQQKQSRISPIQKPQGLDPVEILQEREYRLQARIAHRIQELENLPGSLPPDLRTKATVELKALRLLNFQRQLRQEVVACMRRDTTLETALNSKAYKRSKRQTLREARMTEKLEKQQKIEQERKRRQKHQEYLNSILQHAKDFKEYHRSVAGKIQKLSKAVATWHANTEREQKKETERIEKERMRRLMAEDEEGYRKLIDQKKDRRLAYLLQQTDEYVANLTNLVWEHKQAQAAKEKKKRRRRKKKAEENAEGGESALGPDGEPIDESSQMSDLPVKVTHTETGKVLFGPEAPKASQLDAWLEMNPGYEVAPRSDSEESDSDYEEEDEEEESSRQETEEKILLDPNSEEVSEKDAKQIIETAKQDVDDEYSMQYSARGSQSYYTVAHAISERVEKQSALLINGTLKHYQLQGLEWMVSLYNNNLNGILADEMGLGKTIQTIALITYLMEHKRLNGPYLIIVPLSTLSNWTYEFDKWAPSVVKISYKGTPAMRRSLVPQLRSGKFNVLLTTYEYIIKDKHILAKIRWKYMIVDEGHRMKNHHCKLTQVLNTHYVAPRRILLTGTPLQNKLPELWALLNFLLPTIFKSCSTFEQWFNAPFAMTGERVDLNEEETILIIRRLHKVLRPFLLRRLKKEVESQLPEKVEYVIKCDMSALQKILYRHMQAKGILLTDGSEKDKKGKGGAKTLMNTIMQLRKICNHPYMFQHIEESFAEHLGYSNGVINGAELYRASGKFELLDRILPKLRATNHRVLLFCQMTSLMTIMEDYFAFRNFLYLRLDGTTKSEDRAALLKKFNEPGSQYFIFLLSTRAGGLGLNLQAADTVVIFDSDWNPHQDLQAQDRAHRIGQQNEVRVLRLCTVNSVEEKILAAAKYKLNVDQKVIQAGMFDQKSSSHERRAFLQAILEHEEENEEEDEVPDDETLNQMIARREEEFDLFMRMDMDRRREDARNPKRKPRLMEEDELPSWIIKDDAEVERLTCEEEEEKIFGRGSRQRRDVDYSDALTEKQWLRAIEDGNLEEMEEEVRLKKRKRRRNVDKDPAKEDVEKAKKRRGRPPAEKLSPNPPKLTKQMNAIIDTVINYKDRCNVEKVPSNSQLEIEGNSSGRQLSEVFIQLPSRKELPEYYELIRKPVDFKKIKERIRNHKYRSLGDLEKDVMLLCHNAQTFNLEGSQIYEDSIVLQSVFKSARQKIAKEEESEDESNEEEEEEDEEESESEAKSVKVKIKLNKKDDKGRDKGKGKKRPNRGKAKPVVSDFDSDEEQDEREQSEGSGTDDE
Description: as §1, §2

| EC50 (VCaP cells) | Percent SMARCA4 degradation at 0.1 µM (SMARCA4) | Percent degradation SMARCA2 (SMARCA2) | Percent degradation SMARCA4 (SMARCA4) | SMILES | inhibition at 1 µM (VCaP cells; at 1 μM, read-out: % inhibition of proliferation) |
| --- | --- | --- | --- | --- | --- |
| 10 to 100 nM |  |  |  | Cc1ncsc1-c1ccc([C@H](C)NC(=O)[C@@H]2C[C@@H](O)CN2C(=O)[C@@H](NC(=O)COc2ccc(-c3cc(-c4cc(F)ccc4O)nnc3N)cc2)C(C)(C)C)cc1 [Compound 1, (2S,4R)-1-((S)-2-(2-(4-(3-amino-6-(5-fluoro-2-hydroxyphenyl)pyridazin-4-yl)phenoxy)acetamido)-3,3-dimethylbutanoyl)-4-hydroxy-N—((S)-1-(4-(4-methylthiazol-5-yl)phenyl)ethyl)pyrrolidine-2-carboxamide] |  |
| < 10 nM | 45% | 97% |  | Cc1ncsc1-c1ccc([C@H](C)NC(=O)[C@@H]2C[C@@H](O)CN2C(=O)[C@@H](NC(=O)C2CCC(c3ccc(-c4cc(-c5ccccc5O)nnc4N)cc3)CC2)C(C)(C)C)cc1 (mixture of isomers) [Compound 40, (2S,4R)-1-((S)-2-(4-(4-(3-amino-6-(2-hydroxyphenyl)pyridazin-4-yl)phenyl)cyclohexane-1-carboxamido)-3,3-dimethylbutanoyl)-4-hydroxy-N-((S)-1-(4-(4-methylthiazol-5-yl)phenyl)ethyl)pyrrolidine-2-carboxamide] |  |
| < 10 nM |  |  |  | Cc1ncsc1-c1ccc([C@H](C)NC(=O)[C@@H]2C[C@@H](O)CN2C(=O)C(c2cc(N3CCC(N4CCN(c5ccc(-c6cc(-c7ccccc7O)nnc6N)cc5)CC4)CC3)no2)C(C)C)cc1 (stereo partly drawn) [Compound 59, (2S,4R)-1-(2-(3-(4-(4-(4-(3-amino-6-(2-hydroxyphenyl)pyridazin-4-yl)phenyl)piperazin-1-yl)piperidin-1-yl)isoxazol-5-yl)-3-methylbutanoyl)-4-hydroxy-N—((S)-1-(4-(4-methylthiazol-5-yl)phenyl)ethyl)pyrrolidine-2-carboxamide] |  |
|  | 62% | 30% |  | Cc1ncsc1-c1ccc([C@H](C)NC(=O)[C@@H]2C[C@@H](O)CN2C(=O)C(c2cc(-c3ccc(-c4cc(-c5ccccc5F)nnc4N)cc3)no2)C(C)C)cc1 (stereo partly drawn) [Compound 9, (2S,4R)-1-(2-(3-(4-(3-amino-6-(2-fluorophenyl)pyridazin-4-yl)phenyl)isoxazol-5-yl)-3-methylbutanoyl)-4-hydroxy-N-((S)-1-(4-(4-methylthiazol-5-yl)phenyl)ethyl)pyrrolidine-2-carboxamide] |  |
| > 100 nM |  |  |  | Cc1ncsc1-c1ccc([C@H](C)NC(=O)[C@@H]2C[C@@H](O)CN2C(=O)C(N2CCC(N3CCN(c4ccc(-c5cc(-c6ccccc6O)nnc5N)cc4)CC3)CC2)C(C)(C)C)cc1 (stereo partly drawn) [Compound 60, (2S,4R)-1-(2-(4-(4-(4-(3-amino-6-(2-hydroxyphenyl)pyridazin-4-yl)phenyl)piperazin-1-yl)piperidin-1-yl)-3,3-dimethylbutanoyl)-4-hydroxy-N—((S)-1-(4-(4-methylthiazol-5-yl)phenyl)ethyl)pyrrolidine-2-carboxamide] | 20% |
|  |  | 92% | 52% | Cc1ncsc1-c1ccc([C@H](C)NC(=O)[C@@H]2C[C@@H](O)CN2C(=O)[C@@H](NC(=O)C2CCC(c3ccc(-c4cc(-c5ccccc5O)nnc4N)cc3)CC2)C(C)(C)C)cc1 (single isomer, unassigned) [Compound 41] |  |
|  | 7% | 2% |  | Cc1ncsc1-c1ccc([C@H](C)NC(=O)[C@@H]2C[C@@H](O)CN2C(=O)[C@@H](NC(=O)CC#Cc2ccc(-c3cc(Cl)nnc3N)cc2)C(C)(C)C)cc1 [Compound 22, (2S,4R)-1-((S)-2-(4-(4-(3-amino-6-chloropyridazin-4-yl)phenyl)but-3-ynamido)-3,3-dimethylbutanoyl)-4-hydroxy-N-((S)-1-(4-(4-methylthiazol-5-yl)phenyl)ethyl)pyrrolidine-2-carboxamide] |  |
|  |  | 7% | 35% | Cc1ncsc1-c1ccc([C@H](C)NC(=O)[C@@H]2C[C@@H](O)CN2C(=O)C(c2cc(-c3ccc(-c4cc(-c5ccc[nH]c5=O)nnc4N)cc3)no2)C(C)C)cc1 (stereo partly drawn) [Compound 17] |  |
